Measurements reported in US7569554B2, “Synergistic treatment of cancer using immunomers in conjunction with therapeutic agents” (Idera Pharmaceuticals, Inc., priority 2003, dated 2009).
Structures can show the parent of a compound that is named as a salt.

Tests used:
BALB/c mice = assay: In vivo serum cytokine induction; set-up: species or system mouse; conditions: for IL-6 (serum) / IL-12 (serum): 10 mg/kg, 4 hrs
Protocol: To assess serum cytokine levels, BALB/c mice (n=5) were injected intraperitoneally (i.p), subcutaneously (s.c) or intramuscularly (i.m) with IMO compounds at 10 mg/kg (single dose). Sera was collected by retro-orbital bleeding at 4 hrs of IMO administration and determined IL-112 and IL-6 by sandwich ELISA. Cytokine antibodies and standards were purchased from PharMingen (San Diego, Calif.).
To evaluate the immunopharmacological effects in vivo, IMO compounds, CpG immunomers, and non-CpG oligos were administered to BALB/c mice i.p, s.c or i.m at a dose of 10 mg/kg and their serum was evaluated for IL-12 and IL-6 after 4 hrs.

CT26.CL25 colon tumor = assay: Subcutaneous CT26.CL25 colon tumor in BALB/c mice; format: in vivo, mouse
Protocol: For subcutaneous solid tumor models, 10^6 CT26.CL25 cells/mouse or 5×10^5 B16.F0 cells/mouse in 100 μl of PBS were implanted into BALB/c or C57BL/6 mice in the lower right flank. The tumor size reached to 50 to 200 mg on day 6 for CT26.CL25 and on day 8 for B16.F0 post tumor inoculation. The tumor bearing mice were then treated with peritumoral injection of IMO compounds or non-CpG DNA control at a dose of 1 mg/kg every other day for 10 times. Tumor growth was recorded with the use of calipers, by measuring the long and short diameters of the tumor. Tumor volumes were measured with a caliper and the formula (0.5×length×width^2) was applied to determine tumor growth kinetics.
The antitumor activity of IMO compounds in a murine colon carcinoma CT26.CL25 model was evaluated. BALB/c mice bearing CT26.CL25 subcutaneous solid tumors were treated with 1 mg/kg IMO compounds by peritumoral administration every other day for 10 times starting on day 6 following tumor inoculation.

[1] = tested on: Her-2 positive BT-474 cells; assay: Lysis of BT-474 cells by IMO-activated human PBMCs in the presence of Herceptin; format: cell-based; conditions: FIG. 26
4T1 breast tumor = 4T1 breast tumor in BALB/c mice, combination with doxorubicin; format: in vivo, mouse; conditions: IMO 2 1 mg/kg peritumoral, doxorubicin 30 mg/kg i.p; FIG. 24A
Protocol: For the 4T1 tumor models, 5×10^5 cells/mouse in. 100 μl PBS were implanted into BALB/c mice in the lower right flank. On day 5 when the average tumor size reached 50 mm^2, the mice were given i.p injections of 30 mg/kg doxorubicin (Bedford lab, Bedford, Ohio) for three times on days 5, 6 and 7. IMO 2 (1 mg/kg) dissolved in 100 μl PBS was administrated by peritumoral injection at twice a week interval for a total of six times.

[2] = tested on: human prostate cancer PC3 xenografts; assay: PC3 xenograft experiment repeated with taxotere; format: in vivo, mouse; set-up: unit: mg; conditions: 15 mg/kg
Protocol: (§1) PC3 cells were cultured in 90% Ham's, F12K Medium with 10% Fetal Bovine Serum (FBS), in presence of 100 U/ml Penicillin and 100 μg/ml Streptomycin to establish the Human Prostate cancer model (PC3). Male athymic nude mice, 4-6 weeks old (Frederick Cancer Research and Development Center, Frederick, Md.), were accommodated for 6 days for environmental adjustment prior to the study. Cultured PC3 cells were harvested from the monolayer cultures, washed twice with Ham's, F12K Medium (10% FBS), resuspended in FBS-free Ham's, F12K Medium: Matrigel basement membrane matrix (Becton Dickinson Labware, Bedford, Mass.) (5:1; V/V), and injected subcutaneously (5×10^6 cells, total volume 0.2 ml) into the left inguinal area of each of the mice. The animals were monitored by general clinical observation, body weight, and tumor growth. Tumor growth was monitored by the measurement, with calipers, of two perpendicular diameters of the implant. Tumor mass (weight in grams) was calculated by the formula, 1/2a X b^2, where ‘a’ is the long diameter (cm) and ‘b’ is the short diameter (cm). When the mean tumor sizes reached ˜80 mg, the animals bearing human cancer xenografts were randomly divided into the treatment and control groups (5 animals/group). The control group received sterile physiological saline (0.9% NaCl) only. Immunomer 255 or 285, aseptically dissolved in physiological saline, was administered by subcutaneously injection at dose of 0.5 or 1.0 mg/kg/day, 3 doses/week. […] The detailed treatment schedule is shown as follows.
Taxotere was administered on days 0 and 7. Immunomer 165 was administered 5 days per week. Immunomers 255 and 285 were administered on days 0, 2, 4, 7, 9 and 11.

CD69+ and CD86+ cells = assay: Activation of CD69+ and CD86+ cells in peripheral blood; format: in vivo, mouse; conditions: docetaxel 30 mg/kg days 1 and 3, IMO 2 5 mg/kg days 1, 3, 5, 7; FIG. 24C
[3] = In vitro cytokine induction profiles of IMO compounds (FIG. 16); format: cell-based
[4] = tested on: human prostate cancer PC3 xenografts; assay: Tumor mass, human prostate cancer PC3 xenografts in nude mice, with Gemcitabine; format: in vivo, mouse; conditions: 160 mg/kg
Protocol: as §1

[5] = Body weight and clinical observation of PC3 tumor-bearing nude mice; format: in vivo, mouse; conditions: compared with controls

IMO 3: IMO compound of FIG. 15 (SEQ ID NO 18) containing a human-specific motif (DNA TCTGTCNTTCT; listed as DNA, further chemistry not given here)
Serum IL-12 secretion in mice (BALB/c mice; 4 hr after administration, FIG. 25B): induced IL-12 secretion | Antitumor activity (CT26.CL25 colon tumor; FIG. 25A): potent antitumor activity | Lysis of BT-474 cells [1]: induces lysis of Her-2 positive BT-474 cells in the presence of Herceptin

COc1cccc2c1C(=O)c1c(O)c3c(c(O)c1C2=O)C[C@@](O)(C(=O)CO)C[C@@H]3O[C@H]1C[C@H](N)[C@H](O)[C@H](C)O1 [doxorubicin, reference compound]
Inhibition of 4T1 tumor growth (4T1 breast tumor): strong inhibition

CC(=O)O[C@@]12CO[C@@H]1C[C@H](O)[C@@]1(C)C(=O)[C@H](O)C3=C(C)[C@@H](OC(=O)[C@H](O)[C@@H](NC(=O)OC(C)(C)C)c4ccccc4)C[C@@](O)([C@@H](OC(=O)c4ccccc4)[C@H]21)C3(C)C [Taxotere, Docetaxel]
In vivo anti-cancer activity (tumor mass) ([2]; Day 0.00): 56.64 | In vivo anti-cancer activity (tumor mass) ([2]; Day 3.00): 128.51 | In vivo anti-cancer activity (tumor mass) ([2]; Day 6.00): 320.63 | In vivo anti-cancer activity (tumor mass) ([2]; Day 9.00): 598.69 | In vivo anti-cancer activity (tumor mass) ([2]; Day 12.00): 924.91 | In vivo anti-cancer activity (tumor mass) ([2]; Day 15.00): 1589.08 | Percentage of CD69+ and CD86+ cells (CD69+ and CD86+ cells): did not inhibit such activations

IMO 1: IMO compound of FIG. 15, first in order (SEQ ID NO 13) (DNA TCTGACGTTCT; listed as DNA, chemistry not given here)
IL-6 (serum) (BALB/c mice; Intramuscular (i.m)): 5.8 ± 0.5 ng/mL | IL-12 (serum) (BALB/c mice; Intramuscular (i.m)): 109.3 ± 25 ng/mL | IL-6 (serum) (BALB/c mice; Intraperitoneal (i.p)): 5.9 ± 0.2 ng/mL | IL-12 (serum) (BALB/c mice; Intraperitoneal (i.p)): 59.0 ± 11 ng/mL | IL-6 (serum) (BALB/c mice; Subcutaneous (s.c)): 4.3 ± 0.3 ng/mL | IL-12 (serum) (BALB/c mice; Subcutaneous (s.c)): 98.3 ± 15 ng/mL | IL-12 secretion in vitro [3]: strong IL-12 secretion | Average tumor growth inhibition (CT26.CL25 colon tumor; day 24, compared with non-CpG DNA treated mice, 1 mg/kg peritumoral): 72%

Nc1ccn([C@@H]2O[C@H](CO)[C@@H](O)C2(F)F)c(=O)n1 [Gemcitabine, Gemcitabine HCl]
Tumor mass ([4]; Day 0): 82.6 mg | Tumor mass ([4]; Day 3): 73.0 mg | Tumor mass ([4]; Day 9): 35.7 mg | Tumor mass ([4]; Day 12): 36.2 mg | Tumor mass ([4]; Day 15): 31.7 mg | Tumor mass ([4]; Day 18): 40.8 mg | Tumor mass ([4]; Day 24): 56.5 mg | Tumor mass ([4]; Day 27): 68.0 mg | Tumor mass ([4]; Day 30): 89.4 mg | Tumor mass ([4]; Day 33): 106.5 mg | Tumor mass ([4]; Day 36): 144.2 mg | Tumor mass ([4]; Day 39): 175.3 mg | Tumor mass ([4]; Day 42): 269.1 mg | Tumor mass ([4]; Day 45): 383.8 mg | Tumor mass ([4]; Day 48): 538.6 mg | Body weight gains [5]: body weight loss in the first week and recovered in a week afterwards
